Patent US9988373B2, “Nitrogen-containing six-membered cyclic derivatives and pharmaceutical composition comprising the same” (SHIONOGI & CO., LTD., priority 2013, dated 2018)

What follows are compounds tested against T1, human P2X7 receptor (Homo sapiens, UniProt Q99572, R270H) (assay: Evaluation of a human P2X7 receptor inhibitory activity (Yo-Pro uptake, BzATP stimulation, FLIPR TETRA)). Conditions: antagonistic activity for the human P2X7 receptor, 1321N1 cell transfected with the human P2X7 receptor gene, Yo-Pro fluorescence.
T1 construct: expressed in transfected cells
T1 sequence (Q99572 1-595 R270H): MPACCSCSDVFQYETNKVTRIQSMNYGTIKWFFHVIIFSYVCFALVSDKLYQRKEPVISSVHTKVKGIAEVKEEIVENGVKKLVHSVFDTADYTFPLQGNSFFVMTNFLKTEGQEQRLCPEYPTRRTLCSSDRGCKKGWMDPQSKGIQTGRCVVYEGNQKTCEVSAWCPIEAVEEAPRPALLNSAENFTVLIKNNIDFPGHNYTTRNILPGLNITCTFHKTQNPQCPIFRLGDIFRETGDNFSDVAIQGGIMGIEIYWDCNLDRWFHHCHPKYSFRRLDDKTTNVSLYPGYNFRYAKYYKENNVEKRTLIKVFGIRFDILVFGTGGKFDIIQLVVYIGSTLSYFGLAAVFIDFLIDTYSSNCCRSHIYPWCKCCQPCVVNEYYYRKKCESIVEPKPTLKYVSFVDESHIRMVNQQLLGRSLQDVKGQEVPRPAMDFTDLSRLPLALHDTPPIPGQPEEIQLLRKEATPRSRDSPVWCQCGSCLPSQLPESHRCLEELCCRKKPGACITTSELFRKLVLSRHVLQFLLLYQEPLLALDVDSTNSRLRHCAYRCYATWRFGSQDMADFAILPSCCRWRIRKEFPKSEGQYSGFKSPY
Format: cell-based
Method: Test Example 1 Evaluation of a Human P2X7 Receptor Inhibitory Activity
Stably expressing cell line (1321N1 cell transfected with the human P2X7 receptor gene (GenBank accession number NM_002562.5 including T606C and G952A SNP)) was used. The cells were seeded in a 384-well microtiter plate at a concentration of 8000 cells/well and cultured in the medium (10% fetal bovine serum, 25 mM HEPES, 1% penicillin and streptomycin in DMEM) for one day at 37° C. under 5% carbon dioxide atmosphere. After replacing with 20 μL of the HBSS buffer (20 mM HEPES. 55.6 mM D-glucose, 1×HBSS(−), pH 7.4-7.5), 15 μL of 17.3 μM Yo-Pro solution in the HBSS buffer was added. The plate was placed in high-throughput cellular screening system FLIPR TETRA (Molecullar Devices, LLC.) and 15 μL of 130 μM BzATP solution in the HBSS buffer was added. Measurement of fluorescence intensity by FLIPR TETRA was started. After eight minutes, 15 μL of DMSO solutions containing different concentrations of the compound of the present invention as prepared by dilution with the HBSS buffer were dispensed to each well through the built-in automatic dispenser, and the measurement of fluorescence intensity was continued for 20 minutes. The maximum fluorescence intensity without the compound of the present invention is calculated as 0% inhibition and the maximum fluorescence intensity when the reference compound was added is calculated as 100% inhibition. Changing values of fluorescence intensity by the compound of the present invention were calculated by difference between maximum and minimum fluorescence intensity for 20 minutes. Inhibition ratios (%) were calculated from the following equation:
[formula] IC50 was calculated using logistic approximation.
`O=c1nc(-c2cccc(C(F)(F)F)c2Cl)n(Cc2ccccc2)cc1OCC(F)(F)F` [II-033] gave an IC50 of 60 nM.
For `COc1cn(Cc2ccccc2)c(-c2ccc(Cl)cc2Cl)nc1=O` [II-082], the IC50 was 190 nM.
Work on `COc1cn(Cc2ccccc2)c(-c2cccc(C(F)(F)F)c2Cl)nc1=O` [II-008] yielded an IC50 of 41 nM.
`CC(=O)Nc1cn(Cc2ccccc2)c(-c2cccc(C(F)(F)F)c2Cl)nc1=O` [II-046] was tested, and the IC50 was 180 nM.
`COc1cn(CC#N)c(-c2cccc(C(F)(F)F)c2Cl)nc1=O` [II-032] gave an IC50 of 1000 nM.
Work on `O=c1cc(-c2cccc(C(F)(F)F)c2Cl)n(Cc2ccccc2F)cc1Br` [Compound I-001] yielded an IC50 of 67 nM.

Same assay, conditions: antagonistic activity for the human P2X7 receptor, 1321N1 cell transfected with the human P2X7 receptor gene, Yo-Pro fluorescence, class symbols
`O=c1ccn(Cc2ccc(Oc3ccccc3)cc2)c(-c2cccc(C(F)(F)F)c2Cl)c1` [Compound I-070] was tested, and the IC50 was 1000 to 10000 nM.
Work on `Cc1ccccc1Cn1cc(C)c(=O)nc1-c1cccc(C(F)(F)F)c1Cl` [II-010] yielded an IC50 of under 50 nM.
With `O=c1ccn(Cc2cccc(Oc3ccccc3)c2)c(-c2cccc(C(F)(F)F)c2Cl)c1` [Compound I-036] the IC50 was 500 to 1000 nM.
Work on `COc1cn(Cc2ccccc2Cl)c(-c2cccc(C(F)(F)F)c2Cl)nc1=O` [II-095] yielded an IC50 of under 50 nM.
With `COc1cccc(Cn2ccc(=O)cc2-c2cccc(C(F)(F)F)c2Cl)n1` [Compound I-032] the IC50 was 500 to 1000 nM.
`CC(=O)c1cn(Cc2cccc(C#N)c2)c(-c2cccc(C(F)(F)F)c2Cl)cc1=O` [Compound I-005] gave an IC50 of 500 to 1000 nM.
Compound `CS(=O)(=O)Nc1cn(Cc2ccccc2)c(-c2cccc(C(F)(F)F)c2Cl)nc1=O` [II-047] has an IC50 of 100 to 500 nM.
For `O=c1ccn(Cc2ccc(C(F)(F)F)cc2)c(-c2cccc(C(F)(F)F)c2Cl)c1` [Compound I-052], the IC50 was 1000 to 10000 nM.
With `O=c1ccn(Cc2cccc(OC(F)(F)F)c2)c(-c2cccc(C(F)(F)F)c2Cl)c1` [Compound I-031] the IC50 was 1000 to 10000 nM.
Work on `O=c1ccn(Cc2nc(C(F)(F)F)cs2)c(-c2cccc(C(F)(F)F)c2Cl)c1` [Compound I-066] yielded an IC50 of 1000 to 10000 nM.
Compound `O=c1ccn(Cc2ccc(C(F)(F)F)o2)c(-c2cccc(C(F)(F)F)c2Cl)c1` [Compound I-067] has an IC50 of 500 to 1000 nM.
`O=c1ccn(Cc2cccc(=O)[nH]2)c(-c2cccc(C(F)(F)F)c2Cl)c1` [Compound I-034] showed an IC50 of 500 to 1000 nM.
In the case of `COc1cn(Cc2ccccc2C(F)(F)F)c(-c2cccc(C(F)(F)F)c2Cl)nc1=O` [II-099], the IC50 is reported as under 50 nM.
`CCOc1cn(Cc2ccccc2)c(-c2cccc(C(F)(F)F)c2Cl)cc1=O` [Compound I-072] was tested, and the IC50 was under 50 nM.
Compound `COc1cn(Cc2ccccc2C)c(-c2cccc3ncccc23)nc1=O` [II-002] has an IC50 of 1000 to 10000 nM.
Compound `O=c1ccn(Cc2ccc(-c3ccccc3)cc2)c(-c2cccc(C(F)(F)F)c2Cl)c1` [Compound I-043] has an IC50 of 1000 to 10000 nM.
In the case of `O=c1ccn(Cc2ccccc2OCc2ccccc2)c(-c2cccc(C(F)(F)F)c2Cl)c1` [Compound I-049], the IC50 is reported as 100 to 500 nM.
For `COc1cn(Cc2cccnc2)c(-c2cccc(C(F)(F)F)c2Cl)nc1=O` [II-009], the IC50 was 100 to 500 nM.
With `N#CCOc1cn(Cc2ccccc2)c(-c2cccc(C(F)(F)F)c2Cl)cc1=O` [Compound I-073] the IC50 was under 50 nM.
Compound `N#Cc1cccc(Cn2ccc(=O)cc2-c2cccc(C(F)(F)F)c2Cl)c1` [Compound I-024] has an IC50 of 500 to 1000 nM.
`COc1cn(Cc2cccnc2C(F)(F)F)c(-c2cccc(C(F)(F)F)c2Cl)nc1=O` [II-094] gave an IC50 of 100 to 500 nM.
Compound `COc1cccc(-c2nc(=O)c(OC)cn2Cc2ccccc2)c1Cl` [II-079] has an IC50 of 1000 to 10000 nM.
`O=c1ccn(Cc2cccc(-c3cccs3)c2)c(-c2cccc(C(F)(F)F)c2Cl)c1` [Compound I-047] gave an IC50 of 1000 to 10000 nM.
`COc1cn(Cc2ccccc2C#N)c(-c2cccc(C(F)(F)F)c2Cl)nc1=O` [II-012] showed an IC50 of 100 to 500 nM.
In the case of `O=c1ccn(Cc2ccccc2F)c(-c2cccc(C(F)(F)F)c2Cl)c1` [Compound I-022], the IC50 is reported as 100 to 500 nM.
In the case of `N#Cc1cn(Cc2ccccc2F)c(-c2cccc(C(F)(F)F)c2Cl)cc1=O` [Compound I-002], the IC50 is reported as under 50 nM.
Work on `O=c1ccn(Cc2cccc3c2OCCCO3)c(-c2cccc(C(F)(F)F)c2Cl)c1` [Compound I-046] yielded an IC50 of 100 to 500 nM.
Compound `COc1ccccc1Cn1ccc(=O)cc1-c1cccc(C(F)(F)F)c1Cl` [Compound I-071] has an IC50 of 100 to 500 nM.
Compound `COc1ccc(Cn2ccc(=O)cc2-c2cccc(C(F)(F)F)c2Cl)cc1` [Compound I-040] has an IC50 of 1000 to 10000 nM.
`O=C(Nc1cn(Cc2ccccc2)c(-c2cccc(C(F)(F)F)c2Cl)nc1=O)OCC(F)(F)F` [II-054] was tested, and the IC50 was 100 to 500 nM.
`N#Cc1ccc(Cn2ccc(=O)cc2-c2cccc(C(F)(F)F)c2Cl)cc1` [Compound I-025] showed an IC50 of 1000 to 10000 nM.
With `Cc1ccccc1Cn1cc(C#N)c(=O)nc1-c1cccc(C(F)(F)F)c1Cl` [II-091] the IC50 was under 50 nM.
For `O=c1ccn(Cc2ccccc2OC(F)(F)F)c(-c2cccc(C(F)(F)F)c2Cl)c1` [Compound I-030], the IC50 was 500 to 1000 nM.
With `Cc1cc(Cn2ccc(=O)cc2-c2cccc(C(F)(F)F)c2Cl)on1` [Compound I-068] the IC50 was 1000 to 10000 nM.
For `CN(C)c1cn(Cc2ccccc2)c(-c2cccc(C(F)(F)F)c2Cl)nc1=O` [II-051], the IC50 was 100 to 500 nM.
With `COc1cn(Cc2cccc(C#N)c2)c(-c2cccc(C(F)(F)F)c2Cl)cc1=O` [Compound I-007] the IC50 was 100 to 500 nM.
With `C#CCOc1cn(Cc2ccccc2)c(-c2cccc(C(F)(F)F)c2Cl)nc1=O` [II-040] the IC50 was under 50 nM.
`NC(=O)c1cn(Cc2ccccc2)c(-c2cccc(C(F)(F)F)c2Cl)nc1=O` [II-038] gave an IC50 of 500 to 1000 nM.
With `N#Cc1cccc(Cn2cc(Cl)c(=O)cc2-c2cccc(C(F)(F)F)c2Cl)c1` [Compound I-013] the IC50 was 100 to 500 nM.
With `Cc1ccc(Cn2ccc(=O)cc2-c2cccc(C(F)(F)F)c2Cl)cc1` [Compound I-029] the IC50 was 1000 to 10000 nM.
`O=c1ccn(Cc2ccccc2S(=O)(=O)N2CCOCC2)c(-c2cccc(C(F)(F)F)c2Cl)c1` [Compound I-026] was tested, and the IC50 was 1000 to 10000 nM.
`COc1cn(Cc2ccccc2F)c(-c2cccc(C(F)(F)F)c2Cl)nc1=O` [II-005] was tested, and the IC50 was 50 to 100 nM.
With `COc1ccccc1Cn1cc(F)c(=O)nc1-c1cccc(C(F)(F)F)c1Cl` [II-093] the IC50 was under 50 nM.
In the case of `CC(=O)c1cn(Cc2ccccc2)c(-c2cccc(C(F)(F)F)c2Cl)cc1=O` [Compound I-014], the IC50 is reported as 100 to 500 nM.
`O=c1ccn(Cc2nc3ccccc3s2)c(-c2cccc(C(F)(F)F)c2Cl)c1` [Compound I-042] gave an IC50 of 1000 to 10000 nM.
`COc1cn(Cc2ccccc2C)c(-c2ccc(F)cc2)nc1=O` [II-063] showed an IC50 of 1000 to 10000 nM.
`O=c1ccn(Cc2ccccc2)c(-c2cccc(C(F)(F)F)c2Cl)c1` [Compound I-019] showed an IC50 of 100 to 500 nM.
For `CNc1cn(Cc2ccccc2)c(-c2cccc(C(F)(F)F)c2Cl)nc1=O` [II-044], the IC50 was 100 to 500 nM.
Work on `COc1cn(Cc2ccccc2C)c(C2=CCCCC2)nc1=O` [II-057] yielded an IC50 of 1000 to 10000 nM.
Work on `O=c1ccn(Cc2ccccn2)c(-c2cccc(C(F)(F)F)c2Cl)c1` [Compound I-058] yielded an IC50 of 500 to 1000 nM.
`COc1cn(Cc2ccccc2)c(-c2cccc(Cl)c2C(F)(F)F)nc1=O` [II-083] gave an IC50 of 50 to 100 nM.
`COc1cn(Cc2ccccc2C)c(-c2ccc(Cl)cc2)nc1=O` [II-060] was tested, and the IC50 was 1000 to 10000 nM.
With `COc1cn(Cc2ccccc2C)c(-c2ccccc2F)nc1=O` [II-061] the IC50 was 1000 to 10000 nM.
`CN(C)CCOc1cn(Cc2ccccc2)c(-c2cccc(C(F)(F)F)c2Cl)nc1=O` [II-028] was tested, and the IC50 was 500 to 1000 nM.
Work on `O=c1ccn(Cc2ccccc2)c(-c2cccc(Cl)c2Cl)c1` [Compound I-021] yielded an IC50 of 500 to 1000 nM.
`Cc1ccccc1Cn1ccc(=O)cc1-c1cccc(Cl)c1Cl` [Compound I-016] gave an IC50 of 100 to 500 nM.
In the case of `COc1cn(Cc2ccccc2)c(C2=C[C@H]3CC[C@@H]2C3)nc1=O` [II-071], the IC50 is reported as 1000 to 10000 nM.
With `COc1cn(Cc2ccccn2)c(-c2cccc(C(F)(F)F)c2Cl)nc1=O` [II-018] the IC50 was 100 to 500 nM.
`Cc1ccccc1Cn1cc(OCC#N)c(=O)nc1-c1cccc(C(F)(F)F)c1Cl` [II-090] showed an IC50 of under 50 nM.
In the case of `O=c1ccn(Cc2cccc(CO)c2)c(-c2cccc(C(F)(F)F)c2Cl)c1` [Compound I-035], the IC50 is reported as 100 to 500 nM.
`COc1cn(Cc2ccc(Cl)cc2)c(-c2cccc(C(F)(F)F)c2Cl)nc1=O` [II-096] gave an IC50 of 100 to 500 nM.
In the case of `O=c1ccn(Cc2ccccc2C(F)(F)F)c(-c2cccc(C(F)(F)F)c2Cl)c1` [Compound I-033], the IC50 is reported as 100 to 500 nM.
`COc1cn(Cc2ccccc2OC(F)(F)F)c(-c2cccc(C(F)(F)F)c2Cl)nc1=O` [II-097] gave an IC50 of under 50 nM.
